# Measured values taken from patent US20260053932A1, “COMPOUNDS AND METHODS FOR THE TARGETED DEGRADATION OF ANDROGEN RECEPTOR AND ASSOCIATED METHODS OF USE” (Arvinas Operations, Inc., priority 2020, published 2026).
# Test system: androgen receptor (AR) in LNCaP and/or VCaP cells
# Experiment: Androgen Receptor ELISA assay (AR degradation)
# Format: cell-based
# Details: LNCaP and/or VCaP cells; 5 hours incubation; media with R1881; read-out: DC50 Code* (degradation of AR ELISA)
# Procedure, shortened: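 VCaP cells grown ≥3 days, then treated 5 h with compound in media containing 1 nM R1881 (10× stock). Cells lysed and AR quantified by sandwich ELISA (mouse AR detection Ab, HRP anti-mouse, TMB). DC50 and Dmax derived from AR degradation.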
row,DC50,SMILES
1,< 1 nM,"CC(C)Oc1cc(O[C@H]2C[C@H](N(CC3CCN(c4cnc(C(=O)N[C@H]5CC[C@H](Oc6ccc(C#N)c(Cl)c6)CC5)cn4)CC3)C(C)C)C2)cc2c1C(=O)N(C1CCC(=O)NC1=O)C2=O (stereo partly drawn) [Compound 44, N-((1r,4r)-4-(3-chloro-4-cyanophenoxy)cyclohexyl)-5-(4-((((1r,3r)-3-((2-(2,6-dioxopiperidin-3-yl)-7-isopropoxy-1,3-dioxoisoindolin-5-yl)oxy)cyclobutyl) (isopropyl)amino)methyl)piperidin-1-yl)pyrazine-2-carboxamide]"
2,< 1 nM,"N#Cc1ccc(O[C@H]2CC[C@H](NC(=O)c3cnc(N4CCC(CN(C5COC5)[C@H]5C[C@H](Oc6ccc7c(c6)CN(C6CCC(=O)NC6=O)C7=O)C5)CC4)cn3)CC2)cc1Cl (stereo partly drawn) [Compound 21, N-((1r,4r)-4-(3-chloro-4-cyanophenoxy)cyclohexyl)-5-(4-((((1r,3r)-3-((2-(2,6-dioxopiperidin-3-yl)-1-oxoisoindolin-5-yl)oxy)cyclobutyl) (oxetan-3-yl)amino)methyl)piperidin-1-yl)pyrazine-2-carboxamide]"
3,< 1 nM,"COCCN(CC1CCN(c2cnc(C(=O)N[C@H]3CC[C@H](Oc4ccc(C#N)c(OC)c4)CC3)cn2)CC1)[C@H]1C[C@H](Oc2ccc3c(c2)C(=O)N(C2CCC(=O)NC2=O)C3=O)C1 (stereo partly drawn) [Compound 68, N-((1r,4r)-4-(4-cyano-3-methoxyphenoxy)cyclohexyl)-5-(4-((((1r,3r)-3-((2-(2,6-dioxopiperidin-3-yl)-1,3-dioxoisoindolin-5-yl)oxy)cyclobutyl)(2-methoxyethyl)amino)methyl)piperidin-1-yl)pyrazine-2-carboxamide]"
4,> 100 nM,"COc1cc(O[C@H]2C[C@H](N(CC3CCN(c4ncc(C(=O)NC5CC6(C5)CN(Cc5cc(C)c(C#N)c(C)c5)C6)cn4)CC3)C(C)C)C2)cc2c1C(=O)N(C1CCC(=O)NC1=O)C2=O (mixture of isomers) [Compound 12, rac-N-(2-(4-cyano-3,5-dimethylbenzyl)-2-azaspiro[3.3]heptan-6-yl)-2-(4-((((1r,3r)-3-((2-(2,6-dioxopiperidin-3-yl)-7-methoxy-1,3-dioxoisoindolin-5-yl)oxy)cyclobutyl) (isopropyl)amino)methyl)piperidin-1-yl)pyrimidine-5-carboxamide]"

# Same assay, conditions: degradation of AR ELISA in LNCaP and/or VCaP cells; Table 2C; read-out: DC50 Code*
row,DC50,SMILES
1,< 1 nM,"COCCOCCOCCOCCN(CC1CCN(c2ncc(C(=O)N[C@H]3C(C)(C)[C@H](Oc4cc(C)c(C#N)c(C)c4)C3(C)C)cn2)CC1)[C@H]1C[C@H](Oc2ccc3c(c2)C(=O)N(C2CCC(=O)NC2=O)C3=O)C1 (stereo partly drawn) [compound 145, N-((1r,3r)-3-(4-cyano-3,5-dimethylphenoxy)-2,2,4,4-tetramethylcyclobutyl)-2-(4-(2-((1r,3r)-3-((2-(2,6-dioxopiperidin-3-yl)-1,3-dioxoisoindolin-5-yl)oxy)cyclobutyl)-5,8,11,14-tetraoxa-2-azapentadecyl)piperidin-1-yl)pyrimidine-5-carboxamide]"
2,< 1 nM,"COCCN(CC1CCN(c2ccc(C(=O)N[C@H]3C(C)(C)[C@H](Oc4cc(C)c(C#N)c(C)c4)C3(C)C)cc2)CC1)[C@H]1C[C@H](Oc2cc(OC)c3c(c2)C(=O)N(C2CCC(=O)NC2=O)C3=O)C1 (stereo partly drawn) [compound 106, N-((1r,3r)-3-(4-cyano-3,5-dimethylphenoxy)-2,2,4,4-tetramethylcyclobutyl)-4-(4-((((1r,3r)-3-((2-(2,6-dioxopiperidin-3-yl)-7-methoxy-1,3-dioxoisoindolin-5-yl)oxy)cyclobutyl)(2-methoxyethyl)amino)methyl)piperidin-1-yl)benzamide]"
3,< 1 nM,"Cc1cc(O[C@H]2C(C)(C)[C@H](NC(=O)c3c(C)nc(N4CCC(CN(C(C)C)[C@H]5C[C@H](Oc6ccc7c(c6)C(=O)N(C6CCC(=O)NC6=O)C7=O)C5)CC4)nc3C)C2(C)C)cc(C)c1C#N (mixture of isomers) [compound 200, rac-N-((1r,3r)-3-(4-cyano-3,5-dimethylphenoxy)-2,2,4,4-tetramethylcyclobutyl)-2-(4-((((1r,3r)-3-((2-(2,6-dioxopiperidin-3-yl)-1,3-dioxoisoindolin-5-yl)oxy)cyclobutyl) (isopropyl)amino)methyl)piperidin-1-yl)-4,6-dimethylpyrimidine-5-carboxamide]"

# More lines, now with the values behind:
row,SMILES,DC50
1,"Cc1cc(O[C@H]2C(C)(C)[C@H](NC(=O)c3cnc(N4CCC(CN(C(C)C)[C@H]5C[C@H](Oc6ccc7c(c6)C(=O)N(C6CCC(=O)NC6=O)C7=O)C5)CC4)cn3)C2(C)C)cc(C)c1C#N (stereo partly drawn) [compound 112, N-((1r,3r)-3-(4-cyano-3,5-dimethylphenoxy)-2,2,4,4-tetramethylcyclobutyl)-5-(4-((((1r,3r)-3-((2-(2,6-dioxopiperidin-3-yl)-1,3-dioxoisoindolin-5-yl)oxy)cyclobutyl) (isopropyl)amino)methyl)piperidin-1-yl)pyrazine-2-carboxamide]",< 1 nM
2,"COCCOCCN(CC1CCN(c2ncc(C(=O)N[C@H]3C(C)(C)[C@H](Oc4cc(C)c(C#N)c(C)c4)C3(C)C)cn2)CC1)[C@H]1C[C@H](Oc2ccc3c(c2)C(=O)N(C2CCC(=O)NC2=O)C3=O)C1 (stereo partly drawn) [compound 89, N-((1r,3r)-3-(4-cyano-3,5-dimethylphenoxy)-2,2,4,4-tetramethylcyclobutyl)-2-(4-((((1r,3r)-3-((2-(2,6-dioxopiperidin-3-yl)-1,3-dioxoisoindolin-5-yl)oxy)cyclobutyl)(2-(2-methoxyethoxy)ethyl)amino)methyl)piperidin-1-yl)pyrimidine-5-carboxamide]",< 1 nM
3,"COc1cc(O[C@H]2C[C@H](N(CC3CC4(C3)CN(c3cnc(C(=O)N[C@H]5C(C)(C)[C@H](Oc6cc(C)c(C#N)c(C)c6)C5(C)C)cn3)C4)C(C)C)C2)cc2c1C(=O)N(C1CCC(=O)NC1=O)C2=O (stereo partly drawn) [compound 158, N-((1r,3r)-3-(4-cyano-3,5-dimethylphenoxy)-2,2,4,4-tetramethylcyclobutyl)-5-(6-((((1r,3r)-3-((2-(2,6-dioxopiperidin-3-yl)-7-methoxy-1,3-dioxoisoindolin-5-yl)oxy)cyclobutyl) (isopropyl)amino)methyl)-2-azaspiro[3.3]heptan-2-yl)pyrazine-2-carboxamide]",< 1 nM

# Same assay, conditions: degradation of AR ELISA in LNCaP and/or VCaP cells; read-out: DC50 Code*
row,SMILES,DC50
1,"COc1cc(O[C@H]2C[C@H](N(CC(F)F)CC3CCN(c4cnc(C(=O)N[C@H]5C(C)(C)[C@H](Oc6cc(C)c(C#N)c(C)c6)C5(C)C)cn4)CC3)C2)cc2c1C(=O)N(C1CCC(=O)NC1=O)C2=O (stereo partly drawn) [compound 246, N-((1r,3r)-3-(4-cyano-3,5-dimethylphenoxy)-2,2,4,4-tetramethylcyclobutyl)-5-(4-(((2,2-difluoroethyl)((1r,3r)-3-((2-(2,6-dioxopiperidin-3-yl)-7-methoxy-1,3-dioxoisoindolin-5-yl)oxy)cyclobutyl)amino)methyl)piperidin-1-yl)pyrazine-2-carboxamide]",10 to 100 nM
2,"CC1(C)[C@H](NC(=O)c2ccc(N3CCC(CO[C@H]4C[C@H](Oc5ccc6c(c5)C(=O)N(C5CCC(=O)NC5=O)C6=O)C4)CC3)cc2)C(C)(C)[C@H]1Oc1ccc(C#N)c(Cl)c1 (stereo partly drawn) [compound 245, N-((1r,3r)-3-(3-chloro-4-cyanophenoxy)-2,2,4,4-tetramethylcyclobutyl)-4-(4-(((1r,3r)-3-((2-(2,6-dioxopiperidin-3-yl)-1,3-dioxoisoindolin-5-yl)oxy)cyclobutoxy)methyl)piperidin-1-yl)benzamide]",1 to 10 nM
